According to patent US12285526B2, “Nanoparticle composition with reduced contaminant and production method thereof” (Shionogi & Co., Ltd., priority 2019, dated 2025):

Assay: Particle size of drug particles after bead mill grinding (Microtrac UPA 150 M)
Format: physicochemical
Conditions: slurry with PVP K-25 3 w/w % and sodium lauryl sulfate 0.25 w/w % in water, pH 6.07-10.37; zirconia beads 0.5 mm; ground 120 minutes
Protocol: Phenitoin (Shizuoka Caffein Co., Ltd.) (7.5 g, 5 w/w %) as a drug, polyvinylpyrrolidone (PVP K-25, BASF Japan Ltd.) (4.5 g, 3 w/w %) as a polymer compound, sodium lauryl sulfate (Cognis Japan Ltd.) (0.375 g, 0.25 w/w %) as a surfactant were dispersed in 137.6 g of purified water to prepare a slurry. The pH of the slurry was 3.88. The pH was adjusted by adding 1N aqueous sodium hydroxide solution to this slurry, and samples having various pH (pH 6.07, 6.68, 7.36, 8.14, 8.96, 10.37) were prepared.
Each sample (100 g) and beads (217.3 g, filling ratio 70%) were charged into Dyno-mill Research Lab (manufactured by WAB), and the grinding process by the bead mill was carried out for 120 minutes (disc peripheral speed: 4 m/s, temperature: 20° C., fluid speed: 45 g/min). The beads used for the grinding process were YTZ ball (zirconia beads manufactured by Nikkato Corporation, with diameter of 0.5 mm). As used herein, the term “filling ratio” refers to the ratio (in percentage) of the true volume to the bulk volume of the beads, and hereinafter the same is applied.
The particle size of the drug particles after the grinding process was nano-order of less than 1 μm (D50 value). The particle size was determined using Microtrac UPA 150 M (MicrotracBEL Corp.). […]

particle size of the drug particles after the grinding process (D50 value): less than 1 μm
Structure (SMILES): O=C1NC(=O)C(c2ccccc2)(c2ccccc2)N1 [Phenitoin, Phenytoin]
